Converted amounts (≈) assume the structure as drawn. Read-outs that look alike come from different tables or passages of the source. Where only a bound is given, the exact number is not on record here.

In test [1] the test system is Methicillin-resistant Staphylococcus aureus with the mec A gene and PBP2a (WHO-31). The experiment in a line: MIC by agar dilution, MRSA (WHO-31). The test is classed as cell-based. The text has this: (§1) A panel of multiple resistance Gram-positive and Gram-negative pathogens listed in Tables 1 and 2 was used to evaluate the antimicrobial activity of marinopyrrole derivatives (Chart 1) with vancomycin as a positive control. Except for those marked with WHO, all pathogens were isolated between 2008 and 2010 in hospitals located in Beijing; Guangzhou; Sichuan, Shandong and Jiangsu Province. Determination of the minimum inhibitory concentration (MIC) was done by the guidelines of the Clinical and Laboratory Standards Institute (Clinical and Laboratory Standards Institute, Performance standards for antimicrobial susceptibility testing, seventeenth informational supplement. 2007, 27, M100-S17). The susceptibility tests of a bacterial strain to a marinopyrrole derivative were performed by an agar dilution method. Briefly, each sterile petri dish contained a final volume of 15 mL comprising 1 mL of a marinopyrrole derivative and 14 mL of Mueller-Hinton broth. The concentrations of a marinopyrrole derivative are 128, 64, 32, 16, 8, 4, 2, 1, 0.5, 0.25, 0.125, 0.06, 0.03, 0.015 and 0.008 μg/mL. The petri dish containing the broth with different concentration of antibiotics was first inoculated with 10^5 CFU/mL (Denley A400, United Kingdom) and the culture was then incubated with shaking at 35-37° C. for 18-20 h. The potency of the compound was determined and expressed as minimum inhibitory concentration (MIC) in μg/mL. The MIC was determined as the lowest concentration of antibiotic that inhibited visible bacterial growth.

The test system of test [2] is Methicillin-resistant Staphylococcus epidermidis (MRSE). The experiment in a line: MIC by agar dilution, MRSE clinical isolates. The test is classed as cell-based. Particulars: MRSE.
Source text: as §1
A general note: In agar dilution, organisms are placed on agar that contains the substance at set levels.

Test [3] concerns Oxacillin-resistant Staphylococcus aureus (WHO-25). The experiment in a line: MIC by agar dilution, ORSA (WHO-25). The test is classed as cell-based.
Source text: as §1

The next test deals with K. penumonia. The experiment in a line: MIC by agar dilution, K. penumonia. The test is classed as cell-based, K. pneumonia.
Source text: as §1

The test system of test [4] is Highly vancomycin-resistant Enterococci faecalis (VRE). The experiment in a line: MIC by agar dilution, highly resistant VRE. The test is classed as cell-based.
Source text: as §1

The subject of the next test is E. coli. The experiment in a line: MIC by agar dilution, E. coli. The test is classed as cell-based.
Source text: as §1

Test [5] relates to Moderately vancomycin-resistant Enterococci faecium with the VanA gene (WHO-3). The experiment in a line: MIC by agar dilution, VRE (WHO-3). The test is classed as cell-based.
Source text: as §1

The next test has as its system P. aeruginosa. The experiment in a line: MIC by agar dilution, P. aeruginosa. The test is classed as cell-based.
Source text: as §1

The test system of test [6] is Methicillin-susceptible Staphylococcus aureus (MSSA). The experiment in a line: MIC by agar dilution, MSSA clinical isolates. The test is classed as cell-based. As to conditions: MSSA.
Source text: as §1

In test [7] the test system is Methicillin-resistant Staphylococcus aureus (MRSA). The experiment in a line: MIC by agar dilution, MRSA clinical isolates. The test is classed as cell-based. Particulars: MRSA.
Source text: as §1

[8] abbreviates: Table 1, MRSA (WHO-31), 1 isolate.
Where [9] appears, read: Table 1, ORSA (WHO-25), 1 isolate.
Where [10] appears, read: Table 1, K. penumonia, 4 isolates, value over three Gram-negative pathogens.
Setting [11] is: Table 1, VRE (highly vancomycin-resistant E. faecalis), 2 isolates.
The mark [12] stands for this setting: Table 1, E. coli, 4 isolates, value over three Gram-negative pathogens.
The mark [13] stands for this setting: Table 1, VRE (WHO-3), 1 isolate.
[14] abbreviates: Table 1, P. aeruginosa, 4 isolates, value over three Gram-negative pathogens.
[15] abbreviates: Staphylococcus aureus, Table 1, 10 isolates.
Where [16] appears, read: Staphylococcus aureus, Table 2, data from 8 isolates.
Where [17] appears, read: Staphylococcus aureus, Table 3, data from 8 isolates.

The MIC is the lowest concentration that inhibits growth of the organism. Higher therefore signals weaker potency. As to `COc1cc(O)c(C(=O)c2[nH]c(Cl)c(Cl)c2-n2c(C(=O)c3cc(Cl)c(OC)cc3O)cc(Cl)c2Cl)cc1Cl` [Compound 1m], the MIC in test [1] (setting [8]) is 4 µg/mL (≈ 6.26 µM); in test [2] (Table 1, 3 isolates) it was 0.25 to 4 µg/mL; in test [3] (setting [9]), 4 µg/mL (≈ 6.26 µM); in the test with K. penumonia (setting [10]), above 128 µg/mL; in test [4] (setting [11]) it was above 128 µg/mL; in the test on E. coli (setting [12]), above 128 µg/mL. For the same compound, the MIC in test [5] (setting [13]) is 0.5 µg/mL (≈ 0.782 µM); with P. aeruginosa (setting [14]), above 128 µg/mL; in test [6] (Table 1, 10 isolates), 2 to 8 µg/mL; in test [7] (Table 1, 10 isolates), 2 to 8 µg/mL.
In the case of `O=C(c1ccccc1C(F)(F)F)c1[nH]c(Cl)c(Cl)c1-n1c(C(=O)c2ccccc2C(F)(F)F)cc(Cl)c1Cl` [Compound 1j], the MIC in [1] (setting [8]) was above 128 µg/mL; in test [2] (Table 1, 3 isolates), above 128 µg/mL; in test [3] (setting [9]), above 128 µg/mL; against K. penumonia (setting [10]) it was above 128 µg/mL; in [4] (setting [11]) it was above 128 µg/mL; in the test on E. coli (setting [12]), above 128 µg/mL. The MIC in [5] (setting [13]) is above 128 µg/mL; against P. aeruginosa (setting [14]) it was above 128 µg/mL; in test [6] (Table 1, 10 isolates) it was above 128 µg/mL; in test [7] (Table 1, 10 isolates), above 128 µg/mL.
For the compound `COc1ccccc1C(=O)c1[nH]c(Cl)c(Cl)c1-n1c(C(=O)c2ccccc2OC)cc(Cl)c1Cl` [Compound 1c], the minimal inhibitory concentration (MIC) in test [1] (setting [8]) is 4 µg/mL (≈ 7.43 µM); in test [2] (Table 1, 3 isolates), 2 to 4 µg/mL; in [3] (setting [9]), 8 µg/mL (≈ 14.9 µM); in the test on K. penumonia (setting [10]), above 128 µg/mL; in test [4] (setting [11]), above 128 µg/mL; with E. coli (setting [12]) it was above 128 µg/mL. Also, the MIC in [5] (setting [13]) was 2 µg/mL (≈ 3.72 µM); in the test on P. aeruginosa (setting [14]), above 128 µg/mL; in test [6] (Table 1, 10 isolates), 4 to 16 µg/mL; in [7] (Table 1, 10 isolates) it was 4 to 16 µg/mL.
Consider `O=C(c1ccc(F)cc1)c1[nH]c(Cl)c(Cl)c1-n1c(C(=O)c2ccc(F)cc2)cc(Cl)c1Cl` [Compound 1i], for which the MIC in test [1] (setting [8]) is 4 µg/mL (≈ 7.78 µM); in test [2] (Table 1, 3 isolates), 0.25 to 4 µg/mL; in [3] (setting [9]), 8 µg/mL (≈ 15.6 µM); against K. penumonia (setting [10]), above 128 µg/mL; in [4] (setting [11]) it was above 128 µg/mL; against E. coli (setting [12]), above 128 µg/mL. In addition, the MIC in [5] (setting [13]) was 4 µg/mL (≈ 7.78 µM); in the test on P. aeruginosa (setting [14]), above 128 µg/mL; in [6] (Table 1, 10 isolates), 4 to 16 µg/mL; in test [7] (Table 1, 10 isolates) it was 8 to 16 µg/mL.
Consider `O=C(c1ccc(C(F)(F)F)cc1)c1[nH]c(Cl)c(Cl)c1-n1c(C(=O)c2ccc(C(F)(F)F)cc2)cc(Cl)c1Cl` [Compound 1k], for which the MIC was 8 µg/mL (≈ 13 µM) in [1] (setting [8]); 0.03 to 4 µg/mL in [2] (Table 1, 3 isolates); 8 µg/mL (≈ 13 µM) in test [3] (setting [9]); above 128 µg/mL in the test on K. penumonia (setting [10]); above 128 µg/mL in test [4] (setting [11]); above 128 µg/mL against E. coli (setting [12]). The MIC in [5] (setting [13]) is 8 µg/mL (≈ 13 µM); against P. aeruginosa (setting [14]), above 128 µg/mL; in [6] (Table 1, 10 isolates), 8 to 32 µg/mL; in [7] (Table 1, 10 isolates) it was 32 to 64 µg/mL.
Turning to `CN[C@H](CC(C)C)C(=O)N[C@H]1C(=O)N[C@@H](CC(N)=O)C(=O)N[C@H]2C(=O)N[C@H]3C(=O)N[C@H](C(=O)N[C@H](C(=O)O)c4cc(O)cc(O)c4-c4cc3ccc4O)[C@H](O)c3ccc(c(Cl)c3)Oc3cc2cc(c3O[C@@H]2O[C@H](CO)[C@@H](O)[C@H](O)[C@H]2O[C@H]2C[C@](C)(N)[C@H](O)[C@H](C)O2)Oc2ccc(cc2Cl)[C@H]1O` [Van, Vancomycin, reference compound], the MIC in test [1] (Staphylococcus aureus) was 1 µg/mL (≈ 0.69 µM); in test [1] (Staphylococcus aureus, MRSA), 0.5 µg/mL (≈ 0.345 µM); in [1] (Table 3, WHO-31), 1 µg/mL (≈ 0.69 µM); in test [2] (Staphylococcus epidermidis, Table 1, 3 isolates) it was 0.13 to 0.5 µg/mL (≈ 0.0897 to 0.345 µM); in [2] (Staphylococcus epidermidis, Table 2, data from 4 isolates), 0.5 to 1 µg/mL (≈ 0.345 to 0.69 µM); in test [2] (Staphylococcus epidermidis, Table 3, data from 4 isolates), 0.5 to 1 µg/mL (≈ 0.345 to 0.69 µM). For the same compound, the MIC in [3] (Staphylococcus aureus, Table 1, ORSA (WHO-25), 1 isolate) was 2 µg/mL (≈ 1.38 µM); in test [3] (Staphylococcus aureus, Table 3, WHO-25), 4 µg/mL (≈ 2.76 µM); in test [3] (Staphylococcus aureus, Table 2, WHO-25), 4 µg/mL (≈ 2.76 µM); with K. penumonia (Klebsiella pneumoniae), above 128 µg/mL; in [4], above 128 µg/mL; against E. coli (Escherichia coli) it was above 128 µg/mL. In addition, the MIC in test [5] (Enterococcus) was above 128 µg/mL; in [5] (Enterococcus, VRE), above 64 µg/mL; in [5] (Table 3, WHO-3), above 128 µg/mL; in the test with P. aeruginosa (Pseudomonas aeruginosa), above 128 µg/mL; in test [6] (setting [15]) it was 0.5 to 1 µg/mL (≈ 0.345 to 0.69 µM); in [6] (setting [16]) it was 1 µg/mL (≈ 0.69 µM). Also, the minimum inhibitory concentration (MIC) in [6] (setting [17]) was 1 µg/mL (≈ 0.69 µM); in test [7] (setting [15]), 0.25 to 0.5 µg/mL (≈ 0.173 to 0.345 µM); in test [7] (setting [16]), 0.5 to 1 µg/mL (≈ 0.345 to 0.69 µM); in [7] (setting [17]), 0.5 to 1 µg/mL (≈ 0.345 to 0.69 µM).

Values taken from patent publication US9700044B2, “Symmetrical marinopyrrole derivatives as potential antibiotic agents” (priority 2013, dated 2017).
